Measurements taken from patent publication US20250376464A1 (Trawsfynydd Therapeutics, Inc., priority 2022, published 2025).

Each compound was assayed against SARS-CoV2-Mpro (Severe acute respiratory syndrome coronavirus 2 (2019-nCoV) (SARS-CoV-2), UniProt P0DTD1) (assay: Primary assay: SARS-CoV2-Mpro enzymatic activity inhibition). Conditions: enzyme preincubated with compound for 20 min; slope of linear portion of signal.
Assay type: biochemical
Experimental: Example A. Primary Assay Used to Determine Potency of SARS-CoV2-Mpro Enzymatic Activity Inhibition
• (1) Deliver 2× Enzyme • (2) Deliver buffer into No Enzyme wells • (3) Deliver compounds in 100% DMSO by using Acoustic technology (Echo550; nanoliter range) • (4) Incubate for 20 min • (5) Deliver 2× Substrate to initiate the reaction • (6) Spin & shake, start measuring in EnVision at rt; 5 min interval for 25 (2 hours) • (7) Analyze data by taking slope (signal/time) of linear portion of measurement • (8) Slope is calculated by using Excel, and curve fits are performed using Prism software.
The % inhibition was then used to calculate the IC50 values. The IC50 values are shown in Table A, wherein “A” corresponds to IC50<10.0 nm, “B” corresponds to 10.0 nm≤IC50<50.0 nm, “C” corresponds to 50.0 nm≤IC50<100.0 nm, “D” corresponds to 100.0 nm≤IC50<500.0 nm, and “E” corresponds to 500.0 nm≤IC50<1000.0 nm, and “F” corresponds to 1000.0 nm≤IC50.

Structure (SMILES)	IC50
CCCN(C(=O)[C@@H]1[C@@H]2[C@H](CN1C(=O)[C@@H](NC(=O)C(F)(F)F)C(C)(C)C)C2(C)C)[C@H](C#N)C[C@@H]1C(=O)Nc2ccccc21 [Compound 248, (1R,2S,5S)-N-[(1S)-1-cyano-2-(2-oxoindolin-3-yl)ethyl]-3-[(2S)-3,3-dimethyl-2-[(2,2,2-trifluoroacetyl)amino]butanoyl]-6,6-dimethyl-N-propyl-3-azabicyclo[3.1.0]hexane-2-carboxamide]	≥ 1000 nM
CC(C)(C)[C@H](NC(=O)C(F)(F)F)C(=O)N1C[C@H]2[C@@H]([C@H]1C(=O)NC(C#N)CC1C(=O)Nc3ncccc31)C2(C)C (stereo partly shown) [Compound 249]	500 to 1000 nM
CC(C)(C)[C@H](NC(=O)C(F)(F)F)C(=O)N1C[C@H]2[C@@H]([C@H]1C(=O)NC(C#N)CCC1C(=O)Nc3ccccc31)C2(C)C (stereo partly drawn) [Compound 250, (1R,2S,5S)—N-[1-Cyano-3-(2-oxoindolin-3-yl)propyl]-6,6-dimethyl-3-[(2S)-3,3-dimethyl-2-[(2,2,2-trifluoroacetyl)amino]butanoyl]-3-azabicyclo[3.1.0]hexane-2-carboxamide]	500 to 1000 nM
CC(C)(C)[C@H](NC(=O)C(F)(F)F)C(=O)N1C[C@H]2[C@H]([C@H]1C(=O)N[C@H](C#N)Cn1nnc3ccccc31)C2(C)C [Compound 308, (1S,2S,5S)-N-[(1S)-2-(benzotriazol-1-yl)-1-cyano-ethyl]-3-[(2S)-3,3-dimethyl-2-[(2,2,2-trifluoroacetyl)amino]butanoyl]-6,6-dimethyl-3-azabicyclo[3.1.0]hexane-2-carboxamide]	≥ 1000 nM
